From the kinase profiling compilation of Christmann-Franck et al. (2016)

How the values were obtained:
Assay in all cases: KINOMEscan competition binding
Conditions in all cases: compound 10.0 µM
MAP4K1 (human) = MAP4K1 (human) (UniProt Q92918)
EPHB6 (human) = EPHB6 (human) (UniProt O15197)
PRKCD (human) = PRKCD (human) (UniProt Q05655)
CHUK (human) = CHUK (human) (UniProt O15111)
SRMS (human) = SRMS (human) (UniProt Q9H3Y6)
IGF1R (human) = IGF1R (human) (UniProt P08069)
PI4KB (human) = PI4KB (human) (UniProt Q9UBF8)
[1] = test system: FLT3 (human), P36888 [R834Q]
PDGFRA (human) = PDGFRA (human) (UniProt P16234)
PRKG1 (human) = PRKG1 (human) (UniProt Q13976)
MAP3K3 (human) = MAP3K3 (human) (UniProt Q99759)
PRKD3 (human) = PRKD3 (human) (UniProt O94806)
CDC42BPA (human) = CDC42BPA (human) (UniProt Q5VT25)
STK11 (human) = STK11 (human) (UniProt Q15831)
AKT2 (human) = AKT2 (human) (UniProt P31751)
LIMK1 (human) = LIMK1 (human) (UniProt P53667)
RIOK1 (human) = RIOK1 (human) (UniProt Q9BRS2)
IKBKB (human) = IKBKB (human) (UniProt O14920)
TIE1 (human) = TIE1 (human) (UniProt P35590)
[2] = test system: EGFR (human), P00533 [T790M/L858R]
MARK4 (human) = MARK4 (human) (UniProt Q96L34)
FGFR3 (human) = FGFR3 (human) (UniProt P22607)
DYRK2 (human) = DYRK2 (human) (UniProt Q92630)
STK16 (human) = STK16 (human) (UniProt O75716)
PHKG2 (human) = PHKG2 (human) (UniProt P15735)
FYN (human) = FYN (human) (UniProt P06241)
KIT (human) = KIT (human) (UniProt P10721)
[3] = test system: PIK3CA (human), P42336 [E542K]
ICK (human) = ICK (human) (UniProt Q9UPZ9)
STK36 (human) = STK36 (human) (UniProt Q9NRP7)
FGFR2 (human) = FGFR2 (human) (UniProt P21802)
STK38 (human) = STK38 (human) (UniProt Q15208)
MAPK13 (human) = MAPK13 (human) (UniProt O15264)
NUAK2 (human) = NUAK2 (human) (UniProt Q9H093)
AAK1 (human) = AAK1 (human) (UniProt Q2M2I8)
MAP3K5 (human) = MAP3K5 (human) (UniProt Q99683)
NEK2 (human) = NEK2 (human) (UniProt P51955)
[4] = test system: FLT3 (human), P36888 [K663Q]
CAMK4 (human) = CAMK4 (human) (UniProt Q16566)
DAPK1 (human) = DAPK1 (human) (UniProt P53355)
CSNK1D (human) = CSNK1D (human) (UniProt P48730)

LIMK1 (human), sequence (P53667 whole entry, looked up): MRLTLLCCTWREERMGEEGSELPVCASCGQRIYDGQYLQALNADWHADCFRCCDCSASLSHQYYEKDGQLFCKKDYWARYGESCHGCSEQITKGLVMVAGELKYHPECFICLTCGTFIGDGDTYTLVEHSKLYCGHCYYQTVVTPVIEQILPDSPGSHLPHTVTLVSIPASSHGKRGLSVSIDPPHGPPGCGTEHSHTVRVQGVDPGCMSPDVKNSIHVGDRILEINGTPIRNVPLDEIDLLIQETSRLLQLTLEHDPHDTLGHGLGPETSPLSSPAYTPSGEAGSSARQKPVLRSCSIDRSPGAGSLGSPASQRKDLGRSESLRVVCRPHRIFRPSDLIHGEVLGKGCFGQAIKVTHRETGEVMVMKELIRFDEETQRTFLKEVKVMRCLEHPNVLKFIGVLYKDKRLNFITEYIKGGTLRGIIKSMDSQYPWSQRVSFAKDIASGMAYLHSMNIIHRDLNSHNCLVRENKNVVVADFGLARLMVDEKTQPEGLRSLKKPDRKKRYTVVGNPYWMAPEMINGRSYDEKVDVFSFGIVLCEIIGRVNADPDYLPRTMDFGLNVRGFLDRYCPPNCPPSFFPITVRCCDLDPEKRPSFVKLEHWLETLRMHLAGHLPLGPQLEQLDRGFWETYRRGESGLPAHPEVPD
MARK4 (human), sequence (Q96L34 whole entry, looked up): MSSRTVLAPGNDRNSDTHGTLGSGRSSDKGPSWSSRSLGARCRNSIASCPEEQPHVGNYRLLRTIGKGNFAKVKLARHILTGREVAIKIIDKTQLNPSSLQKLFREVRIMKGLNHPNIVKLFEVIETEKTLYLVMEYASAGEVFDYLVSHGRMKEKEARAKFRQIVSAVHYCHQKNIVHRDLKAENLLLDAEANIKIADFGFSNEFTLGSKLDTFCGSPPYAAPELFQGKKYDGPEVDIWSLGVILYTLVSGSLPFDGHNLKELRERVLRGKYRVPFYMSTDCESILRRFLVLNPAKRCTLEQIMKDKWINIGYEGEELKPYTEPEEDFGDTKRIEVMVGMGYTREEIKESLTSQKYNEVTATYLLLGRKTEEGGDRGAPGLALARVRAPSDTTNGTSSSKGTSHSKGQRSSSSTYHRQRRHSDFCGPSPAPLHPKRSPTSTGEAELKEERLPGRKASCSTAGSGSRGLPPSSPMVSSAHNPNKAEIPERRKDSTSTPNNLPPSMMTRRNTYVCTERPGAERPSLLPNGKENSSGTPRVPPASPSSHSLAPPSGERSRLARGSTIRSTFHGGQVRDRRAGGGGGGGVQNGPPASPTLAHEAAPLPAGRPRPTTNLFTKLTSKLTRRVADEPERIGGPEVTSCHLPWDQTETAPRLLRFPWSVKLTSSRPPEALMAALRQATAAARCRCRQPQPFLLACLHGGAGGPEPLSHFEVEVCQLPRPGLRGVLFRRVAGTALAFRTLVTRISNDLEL
STK16 (human), sequence (O75716 whole entry, looked up): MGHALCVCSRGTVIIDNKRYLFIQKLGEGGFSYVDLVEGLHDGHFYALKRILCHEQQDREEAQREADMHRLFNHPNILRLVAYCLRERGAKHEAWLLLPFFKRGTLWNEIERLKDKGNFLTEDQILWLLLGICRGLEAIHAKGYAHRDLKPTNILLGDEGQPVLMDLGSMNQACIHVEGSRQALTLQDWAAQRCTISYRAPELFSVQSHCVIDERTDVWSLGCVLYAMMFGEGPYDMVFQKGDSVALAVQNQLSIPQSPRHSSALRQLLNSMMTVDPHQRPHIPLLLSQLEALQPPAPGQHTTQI
MAPK13 (human), sequence (O15264 whole entry, looked up): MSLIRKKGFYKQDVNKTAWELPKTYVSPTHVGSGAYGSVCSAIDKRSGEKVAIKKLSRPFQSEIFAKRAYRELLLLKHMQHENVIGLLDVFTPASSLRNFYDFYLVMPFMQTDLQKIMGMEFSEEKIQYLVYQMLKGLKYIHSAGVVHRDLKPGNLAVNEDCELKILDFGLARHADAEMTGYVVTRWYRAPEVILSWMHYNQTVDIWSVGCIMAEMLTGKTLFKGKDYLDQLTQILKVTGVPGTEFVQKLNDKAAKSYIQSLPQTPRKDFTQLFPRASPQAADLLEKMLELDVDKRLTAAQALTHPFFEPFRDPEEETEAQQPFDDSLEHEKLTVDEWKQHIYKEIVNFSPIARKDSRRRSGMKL
KIT (human), sequence (P10721 whole entry, looked up): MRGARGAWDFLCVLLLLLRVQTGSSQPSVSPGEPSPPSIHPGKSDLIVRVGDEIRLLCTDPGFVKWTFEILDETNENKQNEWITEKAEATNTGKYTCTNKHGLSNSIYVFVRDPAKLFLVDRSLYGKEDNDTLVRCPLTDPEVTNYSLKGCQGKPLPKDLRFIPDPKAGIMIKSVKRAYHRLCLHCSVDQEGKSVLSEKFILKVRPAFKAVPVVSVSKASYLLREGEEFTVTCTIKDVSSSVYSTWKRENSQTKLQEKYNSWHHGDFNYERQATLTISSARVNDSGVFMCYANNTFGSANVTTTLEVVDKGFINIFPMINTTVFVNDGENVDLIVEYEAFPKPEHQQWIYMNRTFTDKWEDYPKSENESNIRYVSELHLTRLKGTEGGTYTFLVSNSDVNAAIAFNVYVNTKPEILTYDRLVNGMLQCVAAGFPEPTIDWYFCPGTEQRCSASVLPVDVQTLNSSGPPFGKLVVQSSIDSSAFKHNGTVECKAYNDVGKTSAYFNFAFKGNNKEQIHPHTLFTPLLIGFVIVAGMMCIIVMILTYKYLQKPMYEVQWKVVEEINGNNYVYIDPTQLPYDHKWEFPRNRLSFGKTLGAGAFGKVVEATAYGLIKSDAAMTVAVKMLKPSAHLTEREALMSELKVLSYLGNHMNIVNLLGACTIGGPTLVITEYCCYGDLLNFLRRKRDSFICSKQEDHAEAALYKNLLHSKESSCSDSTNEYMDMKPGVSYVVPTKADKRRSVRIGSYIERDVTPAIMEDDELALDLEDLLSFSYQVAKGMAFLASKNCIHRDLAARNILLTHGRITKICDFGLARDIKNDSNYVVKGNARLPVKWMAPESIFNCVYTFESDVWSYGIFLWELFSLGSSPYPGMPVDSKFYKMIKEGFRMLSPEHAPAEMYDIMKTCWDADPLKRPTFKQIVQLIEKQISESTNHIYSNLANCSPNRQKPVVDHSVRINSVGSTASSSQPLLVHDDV
IGF1R (human), sequence (P08069 whole entry, looked up): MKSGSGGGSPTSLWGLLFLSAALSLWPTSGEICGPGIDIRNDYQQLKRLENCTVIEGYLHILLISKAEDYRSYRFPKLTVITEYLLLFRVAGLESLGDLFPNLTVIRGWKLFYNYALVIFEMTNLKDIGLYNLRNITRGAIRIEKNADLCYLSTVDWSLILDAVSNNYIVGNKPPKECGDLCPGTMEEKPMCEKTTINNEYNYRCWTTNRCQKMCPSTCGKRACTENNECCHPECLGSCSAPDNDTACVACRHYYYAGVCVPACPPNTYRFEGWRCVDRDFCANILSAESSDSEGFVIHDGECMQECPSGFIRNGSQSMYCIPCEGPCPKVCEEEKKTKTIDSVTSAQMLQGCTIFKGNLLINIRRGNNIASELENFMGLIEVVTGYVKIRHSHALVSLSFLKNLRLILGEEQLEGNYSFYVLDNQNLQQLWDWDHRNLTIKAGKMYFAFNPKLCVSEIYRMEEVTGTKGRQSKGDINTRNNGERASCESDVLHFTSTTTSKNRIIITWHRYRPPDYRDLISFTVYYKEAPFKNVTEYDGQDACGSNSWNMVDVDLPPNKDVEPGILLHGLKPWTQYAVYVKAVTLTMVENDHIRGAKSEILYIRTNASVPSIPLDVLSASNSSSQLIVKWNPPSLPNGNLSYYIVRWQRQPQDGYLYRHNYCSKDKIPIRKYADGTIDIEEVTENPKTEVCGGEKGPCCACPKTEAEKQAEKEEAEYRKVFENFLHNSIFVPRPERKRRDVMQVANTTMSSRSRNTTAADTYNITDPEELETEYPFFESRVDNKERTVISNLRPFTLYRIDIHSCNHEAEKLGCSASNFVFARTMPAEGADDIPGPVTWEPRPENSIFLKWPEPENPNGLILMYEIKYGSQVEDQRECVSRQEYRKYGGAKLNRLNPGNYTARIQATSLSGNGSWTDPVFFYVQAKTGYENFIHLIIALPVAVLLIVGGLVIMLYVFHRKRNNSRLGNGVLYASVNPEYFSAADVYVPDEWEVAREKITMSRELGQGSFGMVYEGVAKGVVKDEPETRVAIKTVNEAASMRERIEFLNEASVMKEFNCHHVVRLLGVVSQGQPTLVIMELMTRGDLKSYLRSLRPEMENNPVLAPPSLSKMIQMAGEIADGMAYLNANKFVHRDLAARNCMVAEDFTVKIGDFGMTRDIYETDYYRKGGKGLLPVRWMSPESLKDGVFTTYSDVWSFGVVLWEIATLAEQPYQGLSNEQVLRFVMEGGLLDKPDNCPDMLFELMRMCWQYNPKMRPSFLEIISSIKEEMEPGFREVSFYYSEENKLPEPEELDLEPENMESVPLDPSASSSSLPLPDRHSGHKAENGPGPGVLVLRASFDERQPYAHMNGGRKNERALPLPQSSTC
RIOK1 (human), sequence (Q9BRS2 whole entry, looked up): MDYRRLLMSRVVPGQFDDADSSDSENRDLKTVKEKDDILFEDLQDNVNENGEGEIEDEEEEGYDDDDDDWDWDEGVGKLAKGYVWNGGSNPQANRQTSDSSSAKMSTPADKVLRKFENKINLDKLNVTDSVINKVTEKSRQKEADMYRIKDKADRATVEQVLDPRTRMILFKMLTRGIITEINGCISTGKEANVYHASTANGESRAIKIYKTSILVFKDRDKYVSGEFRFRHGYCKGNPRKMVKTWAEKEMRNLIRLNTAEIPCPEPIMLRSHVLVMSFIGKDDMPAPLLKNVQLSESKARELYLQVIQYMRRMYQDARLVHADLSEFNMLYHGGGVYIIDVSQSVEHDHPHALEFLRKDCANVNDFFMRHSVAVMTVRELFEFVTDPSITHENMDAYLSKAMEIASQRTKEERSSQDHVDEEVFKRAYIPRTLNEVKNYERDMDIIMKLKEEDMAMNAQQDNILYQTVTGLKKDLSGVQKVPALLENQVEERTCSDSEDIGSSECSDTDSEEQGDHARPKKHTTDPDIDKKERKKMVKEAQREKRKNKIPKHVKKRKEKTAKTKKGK

## COC(=O)Nc1ccc(-c2nc(N3CCOCC3)c3cnn(C4CCN(C(=O)OC)CC4)c3n2)cc1
MAP4K1 (human)
  kinase still bound, per cent of control: 100%
EPHB6 (human)
  kinase still bound, per cent of control: 97%
PRKCD (human)
  kinase still bound, per cent of control: 99%
CHUK (human)
  kinase still bound, per cent of control: 63%
SRMS (human)
  kinase still bound, per cent of control: 78%
IGF1R (human)
  per cent of control: 98%
PI4KB (human)
  kinase still bound, per cent of control: 100%
[1]
  kinase still bound, per cent of control: 76%
PDGFRA (human)
  kinase still bound, per cent of control: 92%
PRKG1 (human)
  kinase still bound, per cent of control: 100%
MAP3K3 (human)
  kinase still bound, per cent of control: 81%
PRKD3 (human)
  kinase still bound, per cent of control: 100%
CDC42BPA (human)
  kinase still bound, per cent of control: 100%
STK11 (human)
  kinase still bound, per cent of control: 100%
AKT2 (human)
  kinase still bound, per cent of control: 100%
LIMK1 (human)
  kinase still bound, per cent of control: 100%
RIOK1 (human)
  kinase still bound, per cent of control: 92%
IKBKB (human)
  kinase still bound, per cent of control: 74%
TIE1 (human)
  kinase still bound, per cent of control: 99%
[2]
  kinase still bound, per cent of control: 100%
MARK4 (human)
  kinase still bound, per cent of control: 96%
FGFR3 (human)
  kinase still bound, per cent of control: 99%
DYRK2 (human)
  kinase still bound, per cent of control: 82%
STK16 (human)
  kinase still bound, per cent of control: 77%
PHKG2 (human)
  kinase still bound, per cent of control: 86%
FYN (human)
  kinase still bound, per cent of control: 99%
KIT (human)
  kinase still bound, per cent of control: 100%
[3]
  kinase still bound, per cent of control: 5.2%
ICK (human)
  kinase still bound, per cent of control: 85%
STK36 (human)
  kinase still bound, per cent of control: 91%
FGFR2 (human)
  kinase still bound, per cent of control: 100%
STK38 (human)
  kinase still bound, per cent of control: 88%
MAPK13 (human)
  kinase still bound, per cent of control: 0%
NUAK2 (human)
  kinase still bound, per cent of control: 84%
AAK1 (human)
  kinase still bound, per cent of control: 86%
MAP3K5 (human)
  kinase still bound, per cent of control: 100%
NEK2 (human)
  kinase still bound, per cent of control: 100%
[4]
  kinase still bound, per cent of control: 93%
CAMK4 (human)
  kinase still bound, per cent of control: 100%
DAPK1 (human)
  kinase still bound, per cent of control: 100%
CSNK1D (human)
  per cent of control: 100%
